Measured values reported in patent US20150045410A1, “METHOD OF REGULATING CFTR EXPRESSION AND PROCESSING” (University of Iowa Research Foundation, priority 2012, published 2015).

Columns and labels:
HA-tagged wild-type CFTR = experiment: Cell surface ELISA (anti-HA) in HeLa cells stably expressing HA-tagged wild-type CFTR; assay type: cell-based; conditions: wild-type CFTR-3HA under CMV promoter, 6, 12, 24 hrs post-transfection
Text: Hela cells stably expressing wild-type CFTR or CFTR-ΔF508 were kindly provided by Dr. G. Lukacs (Sharma, M., Benharouga, M., Hu, W. & Lukacs, G. L. Conformational and temperature-sensitive stability defects of the delta F508 cystic fibrosis transmembrane conductance regulator in post-endoplasmic reticulum compartments. J Biol. Chem. 276, 8942-8950, (2001); Sharma, M. et al. Misfolding diverts CFTR from recycling to degradation: quality control at early endosomes. J Cell Biol. 164, 923-933 (2004)). Cell surface ELISA was performed on these cells (Okiyoneda, T. et al. Peripheral protein quality control removes unfolded CFTR from the plasma membrane. Science 329, 805-810 (2010)) 6 hrs, 12 hrs, and 24 hrs after transfecting with oligonucleotides. HeLa cells were transfected in 96 well plates (Costar) with the SIN3A DsiRNA and miR-138 mimic as described earlier using the Lipofectamine™ RNAiMAX (Invitrogen) recommended reverse transfection protocol. Briefly, the plate containing the cells was moved to a cold room (4° C.), and all media used was ice cold. […] The reaction was stopped and read on a VersaMax™ Microplate Reader (Molecular Devices) at 540 nm using the SoftMax® Prof Software (Molecular Devices). For normalization, cells were lysed and total protein quantitated using the BCA Protein Assay kit (Pierce). […] Statistical significance between groups was determined using Student's t-test.

CFTR-ΔF508 = experiment: Immunoblot (HA antibody) in HeLa cells stably expressing HA-tagged CFTR-ΔF508; assay type: cell-based; conditions: CFTR-ΔF508-3HA
Protocol: (Wang, X. et al. Hsp90 cochaperone Aha1 downregulation rescues misfolding of CFTR in cystic fibrosis. Cell 127, 803-815 (2006)): Cell lines or primary cultures were washed with PBS and lysed in freshly prepared lysis buffer (1% Triton, 25 mM Tris pH 7.4, 150 mM NaCl, protease inhibitors (cOmplete™, mini, EDTA-free, Roche)) for 30 min at 4° C. The lysates were centrifuged at 14,000 rpm for 20 min at 4° C., and the supernatant quantified by BCA Protein Assay kit (Pierce). 20 μg (Calu-3) and 50 μg (human primary airway epithelial cultures, HeLa, HEK293T) of protein per lane was separated on a 7% SDS-PAGE gel for western blot analysis. Antibodies were procured for SIN3A (1:1000, R&D Systems), CTCF (1:500, Cell Signaling Technology), CFTR (R-769 (1:2000, CFFT), MM13-4 (1:1000, Millipore), M3A7 (1:500, Millipore), 24-1 (1:1000, R&D Systems)), hemagglutinin (1; 1000, Covance) and α-tubulin (1:10000, Sigma). Protein abundance was quantified by densitometry using an Alphalnnotech Fluorochem Imager (Alphalnnotech). For CFTR, band B and C were quantified separately. All bands were normalized to α-tubulin. Experiments were performed in triplicates per donor and mean and standard error of the mean determined using unpaired two-tailed t-test. […] If signal was detected, the stripping procedure was repeated till no signal was observed. […]

Substance | HA-tagged CFTR at the cell surface (ELISA) (HA-tagged wild-type CFTR) | abundance of the mature, fully glycosylated CFTR band C (CFTR-ΔF508)
SIN3A DsiRNA: Dicer-substrate siRNA against SIN3A, sense SEQ ID NO: 6, antisense SEQ ID NO: 7 (sense GCGAUACAUGAAUUCAGAUACUACC; antisense GGUAGUAUCUGAAUUCAUGUAUCGCUC; chemistry not given here) | increase | increased
miR-138 mimic: synthetic modified RNA duplex, sense SEQ ID NO: 4, antisense SEQ ID NO: 5, showing miR-138-like activity | increase | increased
